From US8226943B2, “Antibodies to notch receptors” (OncoMed Pharmaceuticals, Inc., priority 2008, dated 2012)

Experiments:
[1] = molecular target: T1, binding of DLL4 to the human Notch 2 receptor (Homo sapiens, UniProt Q04721); assay: FACS blocking of hDLL4 ECD-Fc binding to human Notch2 on HEK-293 cells; settings: HEK-293 stably overexpressing human Notch2
T1 construct: expressed in transfected cells; host or cells: HEK-293, stably overexpressing human Notch2
Description: In addition, the 59R1 IgG2 antibody was assayed for its ability to block binding of DLL4 to the human Notch 2 receptor by FACS analysis. HEK-293 cells stably overexpressing human Notch2 were incubated with the antibody at various concentration and then detected for hNotch2 binding (FIG. 1C) by PE-conjugated goat anti-human Fc gamma specific antibody, or ligand blocking activity (FIG. 1D). Ligand blocking was determined by incubating the cells with human DLL4 ECD tagged with the rabbit Fc constant region and the 59R1 antibody at a range of concentrations, and then detecting the hDLL4 by PE-conjugated donkey anti-rabbit antibody. Binding of hNotch2 and ligand blocking activity were thus confirmed for the 59R1 IgG2 antibody.

human Notch4 = molecular target: T2, human Notch4 (Homo sapiens, UniProt Q99466); assay: FACS binding to transiently transfected HEK-293 cells, human Notch4
T2 construct: All Notch constructs were full length; expressed in transfected cells; host or cells: HEK-293, transient, co-transfected with GFP
Description: The ability of the 59R1 IgG2 antibody to cross-react with other Notch receptors was determined by FACS assay using HEK-293 cells transiently transfected with the human Notch1, Notch2, Notch3 or Notch4 expression plasmid and green fluorescent protein (GFP) as a transfection control. GFP positive cells indicated expression of the transgene. The 59R1 IgG2 was added to the cells at 2 μg/ml and detected by PE-conjugated goat anti-human Fc gamma specific (Jackson Immunochemicals). All Notch constructs were full length.

[2] = system: breast tumor xenograft line OMP-B39; assay: OMP-B39 breast tumor xenograft growth; type: in vivo, NOD/SCID mice; settings: established tumors, 15 mg/kg once a week
Description: The 59R1 IgG2 antibody was also tested in vivo in the breast tumor xenograft lines OMP-B34, OMP-B39, OMP-B44, PE13, and UM-T1, the pancreas tumor xenograft line OMP-PN8, and the colon tumor xenograft line OMP-C8. These tumor xenograft lines were established by adhering to procedures described in Al-Hajj et al., 2003, Proc. Natl. Acad. Sci. USA, 100:3983-3988. Female NOD/SCID immuno-compromised mice 7-10 weeks old were used for the establishment of the breast tumor xenografts and male NOD/SCID mice were used for the OMP-Pn8 and OMP-C8 tumor-models (Harlan, Indianapolis, Ind.). The 59R1 IgG2 antibody was also tested in vivo in a Colo-205 colon tumor xenograft model. Female immunodeficient bg/nu XID mice on a Swiss CD-1 background were used for the Colo-205 xenograft tumor model. In case of the breast cancer models, slow-releasing estrogen pellets (0.36 mg) had to be implanted. Mice were subcutaneously injected on the right flank with 50,000 (OMP-B34, OMP-B39, OMP-B44, PE13, and UM-T1) or 1×10^7 (Colo-205) viable cells, respectively, in a mixture of PBS (without magnesium or calcium) and Matrigel at a 1:1 ratio. […] Antibodies were administered weekly and tumors measured twice weekly. […] Tumor volume was calculated as described Al-Hajj et al. (2003). Data are expressed as the mean and the mean±S.E.M. Group means were compared using Student's two-tailed, unpaired t-test. […]

stroma of Colo205 tumors = assay: Microarray gene expression in stroma of treated xenograft tumors, Colo205; type: in vivo, mice; settings: 59R1 vs control
Description: Gene expression levels in various xenograft tumor models treated with the 59R1 IgG2 antibody were analyzed by microarray analysis. Global gene expression profiling analysis was performed on Affymetrix HG-U133 plus 2.0 microarray (Affymetrix, Santa Clara, Calif.). Three independent RNA samples of xenograft whole tumors from the control and treatment groups were isolated and hybridized to the microarrays according to the manufacturer's instructions. Scanned array background adjustment and signal intensity normalization were performed with GCRMA algorithm in the open-source bioconductor software (www.bioconductor.org). The expression level of each gene was normalized by z-score transformation across the samples in the control (CTRL) and treatment (59R1) groups.

stroma of B44 tumors = assay: Microarray gene expression in stroma of treated xenograft tumors, B44; type: in vivo, mice; settings: 59R1 vs control
Description: Gene expression levels in various xenograft tumor models treated with the 59R1 IgG2 antibody were analyzed by microarray analysis. […] […] Scanned array background adjustment and signal intensity normalization were performed with GCRMA algorithm in the open-source bioconductor software (www.bioconductor.org). The expression level of each gene was normalized by z-score transformation across the samples in the control (CTRL) and treatment (59R1) groups.

T2 sequence (Q99466 24-2003): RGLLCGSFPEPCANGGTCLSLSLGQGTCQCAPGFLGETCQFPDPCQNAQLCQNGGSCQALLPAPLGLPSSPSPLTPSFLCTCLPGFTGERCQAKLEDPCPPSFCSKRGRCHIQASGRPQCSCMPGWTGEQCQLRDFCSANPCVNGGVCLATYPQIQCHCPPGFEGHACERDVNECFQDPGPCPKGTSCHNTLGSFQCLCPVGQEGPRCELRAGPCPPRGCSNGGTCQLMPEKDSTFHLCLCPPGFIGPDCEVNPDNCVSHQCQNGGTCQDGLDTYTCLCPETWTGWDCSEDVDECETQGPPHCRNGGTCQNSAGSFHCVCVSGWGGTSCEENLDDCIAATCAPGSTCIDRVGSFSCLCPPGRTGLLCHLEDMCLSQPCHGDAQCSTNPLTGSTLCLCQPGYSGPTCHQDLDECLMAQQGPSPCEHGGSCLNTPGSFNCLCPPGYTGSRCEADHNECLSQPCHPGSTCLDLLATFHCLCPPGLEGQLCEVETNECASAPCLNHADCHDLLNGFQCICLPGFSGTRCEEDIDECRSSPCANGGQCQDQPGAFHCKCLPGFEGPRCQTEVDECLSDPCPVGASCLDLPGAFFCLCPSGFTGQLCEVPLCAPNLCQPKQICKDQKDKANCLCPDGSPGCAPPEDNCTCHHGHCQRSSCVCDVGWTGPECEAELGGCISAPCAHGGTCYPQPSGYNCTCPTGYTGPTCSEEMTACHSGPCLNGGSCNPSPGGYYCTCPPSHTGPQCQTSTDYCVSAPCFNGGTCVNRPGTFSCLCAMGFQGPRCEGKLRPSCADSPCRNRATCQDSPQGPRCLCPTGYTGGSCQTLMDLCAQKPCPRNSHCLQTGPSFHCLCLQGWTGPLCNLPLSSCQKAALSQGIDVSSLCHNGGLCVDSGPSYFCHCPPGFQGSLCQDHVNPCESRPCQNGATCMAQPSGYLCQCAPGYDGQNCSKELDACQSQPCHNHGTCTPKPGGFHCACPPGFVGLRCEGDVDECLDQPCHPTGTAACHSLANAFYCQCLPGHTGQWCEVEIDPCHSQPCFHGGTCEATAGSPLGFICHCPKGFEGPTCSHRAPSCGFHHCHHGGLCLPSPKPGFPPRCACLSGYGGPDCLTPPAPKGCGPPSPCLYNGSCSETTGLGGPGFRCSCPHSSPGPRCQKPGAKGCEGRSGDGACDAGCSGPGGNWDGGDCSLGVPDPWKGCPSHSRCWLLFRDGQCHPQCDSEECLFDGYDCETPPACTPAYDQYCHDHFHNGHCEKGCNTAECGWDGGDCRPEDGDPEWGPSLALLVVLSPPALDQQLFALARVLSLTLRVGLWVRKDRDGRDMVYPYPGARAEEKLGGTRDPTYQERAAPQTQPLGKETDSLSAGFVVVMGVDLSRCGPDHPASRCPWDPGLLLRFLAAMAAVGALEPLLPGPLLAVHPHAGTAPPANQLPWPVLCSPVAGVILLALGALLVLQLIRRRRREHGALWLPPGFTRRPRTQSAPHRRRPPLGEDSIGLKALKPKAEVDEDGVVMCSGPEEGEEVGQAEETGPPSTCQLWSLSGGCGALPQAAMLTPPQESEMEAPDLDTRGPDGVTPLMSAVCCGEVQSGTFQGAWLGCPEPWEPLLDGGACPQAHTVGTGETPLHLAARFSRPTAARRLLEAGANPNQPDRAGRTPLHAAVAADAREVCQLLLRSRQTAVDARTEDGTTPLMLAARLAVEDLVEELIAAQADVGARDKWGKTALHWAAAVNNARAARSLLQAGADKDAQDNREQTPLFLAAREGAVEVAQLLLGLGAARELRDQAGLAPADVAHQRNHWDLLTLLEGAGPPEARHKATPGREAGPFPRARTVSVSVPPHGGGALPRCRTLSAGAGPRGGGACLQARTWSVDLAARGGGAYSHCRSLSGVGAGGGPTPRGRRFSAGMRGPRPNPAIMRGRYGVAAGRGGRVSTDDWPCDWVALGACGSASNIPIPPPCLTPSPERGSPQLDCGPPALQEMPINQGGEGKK
T1 sequence (Q04721 26-2471): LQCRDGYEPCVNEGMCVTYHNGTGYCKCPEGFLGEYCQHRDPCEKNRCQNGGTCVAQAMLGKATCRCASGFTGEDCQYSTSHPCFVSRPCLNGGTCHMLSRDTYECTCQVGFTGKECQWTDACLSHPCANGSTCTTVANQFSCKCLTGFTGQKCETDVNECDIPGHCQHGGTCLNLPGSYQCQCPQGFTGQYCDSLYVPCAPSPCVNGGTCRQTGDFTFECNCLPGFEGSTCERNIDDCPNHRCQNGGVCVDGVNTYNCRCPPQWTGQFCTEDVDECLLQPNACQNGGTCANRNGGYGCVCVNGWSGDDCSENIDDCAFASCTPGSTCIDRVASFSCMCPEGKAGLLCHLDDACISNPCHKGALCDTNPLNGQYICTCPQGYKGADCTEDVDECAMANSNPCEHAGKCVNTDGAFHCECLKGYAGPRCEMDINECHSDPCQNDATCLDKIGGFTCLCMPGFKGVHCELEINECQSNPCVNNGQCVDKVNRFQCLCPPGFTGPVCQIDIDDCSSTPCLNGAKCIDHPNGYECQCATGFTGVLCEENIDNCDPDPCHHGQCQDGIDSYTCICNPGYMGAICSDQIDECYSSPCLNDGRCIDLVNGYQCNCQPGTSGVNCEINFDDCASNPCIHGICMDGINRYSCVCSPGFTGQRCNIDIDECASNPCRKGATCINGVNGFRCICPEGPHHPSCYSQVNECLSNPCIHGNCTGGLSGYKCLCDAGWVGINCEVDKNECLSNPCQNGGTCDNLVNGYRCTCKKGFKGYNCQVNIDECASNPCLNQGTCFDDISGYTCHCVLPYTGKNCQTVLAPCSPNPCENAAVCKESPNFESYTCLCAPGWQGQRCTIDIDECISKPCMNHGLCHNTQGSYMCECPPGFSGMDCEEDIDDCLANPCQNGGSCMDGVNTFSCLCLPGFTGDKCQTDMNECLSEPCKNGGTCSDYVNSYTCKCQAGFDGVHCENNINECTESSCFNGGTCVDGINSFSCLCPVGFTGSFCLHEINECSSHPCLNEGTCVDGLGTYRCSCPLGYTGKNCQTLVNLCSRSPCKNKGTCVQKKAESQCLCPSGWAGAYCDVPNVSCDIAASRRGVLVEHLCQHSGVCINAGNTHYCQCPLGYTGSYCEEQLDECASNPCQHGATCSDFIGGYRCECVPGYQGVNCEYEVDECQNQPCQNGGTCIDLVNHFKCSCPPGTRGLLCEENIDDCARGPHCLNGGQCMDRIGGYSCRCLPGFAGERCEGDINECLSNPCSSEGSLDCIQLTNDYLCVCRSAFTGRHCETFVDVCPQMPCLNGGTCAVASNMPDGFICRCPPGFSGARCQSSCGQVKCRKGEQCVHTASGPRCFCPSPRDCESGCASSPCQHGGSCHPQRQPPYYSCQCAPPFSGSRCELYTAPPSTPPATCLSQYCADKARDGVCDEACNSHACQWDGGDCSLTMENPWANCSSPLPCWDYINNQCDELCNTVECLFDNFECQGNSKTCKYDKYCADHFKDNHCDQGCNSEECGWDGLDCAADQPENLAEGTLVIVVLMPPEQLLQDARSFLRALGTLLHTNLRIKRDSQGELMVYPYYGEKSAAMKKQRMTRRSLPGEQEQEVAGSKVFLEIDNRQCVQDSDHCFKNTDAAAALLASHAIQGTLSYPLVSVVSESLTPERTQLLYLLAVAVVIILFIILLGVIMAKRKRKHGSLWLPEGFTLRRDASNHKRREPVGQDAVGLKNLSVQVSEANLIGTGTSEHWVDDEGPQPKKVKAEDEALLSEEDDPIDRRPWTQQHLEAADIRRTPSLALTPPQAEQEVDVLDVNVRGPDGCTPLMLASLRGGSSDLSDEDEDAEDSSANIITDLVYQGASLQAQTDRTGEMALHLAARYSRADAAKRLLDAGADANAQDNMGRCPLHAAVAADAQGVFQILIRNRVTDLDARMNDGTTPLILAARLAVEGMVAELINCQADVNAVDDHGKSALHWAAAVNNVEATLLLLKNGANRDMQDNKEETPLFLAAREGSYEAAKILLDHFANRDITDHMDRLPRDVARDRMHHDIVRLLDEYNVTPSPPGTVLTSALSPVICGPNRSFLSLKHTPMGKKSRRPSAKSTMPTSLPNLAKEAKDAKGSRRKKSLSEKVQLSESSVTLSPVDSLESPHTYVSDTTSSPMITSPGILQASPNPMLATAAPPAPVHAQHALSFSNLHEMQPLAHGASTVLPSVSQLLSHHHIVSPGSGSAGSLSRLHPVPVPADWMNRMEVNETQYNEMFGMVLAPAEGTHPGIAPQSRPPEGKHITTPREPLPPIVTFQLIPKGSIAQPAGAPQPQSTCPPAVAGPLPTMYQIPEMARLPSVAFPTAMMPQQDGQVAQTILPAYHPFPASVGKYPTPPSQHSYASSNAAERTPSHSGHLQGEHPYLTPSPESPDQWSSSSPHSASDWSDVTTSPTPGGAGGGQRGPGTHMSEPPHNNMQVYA

## 59R1: human IgG2 antibody binding Notch2 and Notch3; heavy and light chain SEQ ID NO:16 and 18; ATCC PTA-9547
[1]
  blocking of hDLL4 binding to human Notch2 (FACS): confirmed
Human Notch4
  binding to full-length human Notch4 (FACS): does not bind significantly
[2]
  B39 breast cancer growth relative to control antibody: inhibit breast cancer growth
Stroma of Colo205 tumors
  Fold 1417466_at (Rgs5): −3.39
  Fold 1417714_x_at (Hba-al/Hba-a2): −8.37
  Fold 1420872_at (Gucy1b3): −1.94
  Fold 1420942_s_at (Rgs5): −5.52
  Fold 1421964_at (Notch3): −3.26
  Fold 1434141_at (Gucy1a3): −2.49
  Fold 1451501_a_at (Ghr): −1.83
  Fold 1452590_a_at (Plac9): −1.61
Stroma of B44 tumors
  Fold 1416286_at (Rgs4): −1.57
  Fold 1417466_at (Rgs5): −2.22
  Fold 1417714_x_at (Hba-al/Hba-a2): −2.56
  Fold 1418829_a_at (Eno2): 1.71
  Fold 1419302_at (Heyl): −1.12
  Fold 1420872_at (Gucy1b3): −1.65
  Fold 1420941_at (Rgs5): −2.09
  Fold 1420942_s_at (Rgs5): −2.43
  Fold 1421964_at (Notch3): −2.03
  Fold 1422789_at (Aldh1a2): −4.92
  Fold 1428361_x_at (Hba-al/Hba-a2): −2.42
  Fold 1434141_at (Gucy1a3): −1.74
  Fold 1449280_at (Esm1): 1.55
  Fold 1449632_s_at (Fkbp10): −1.57
  Fold 1451501_a_at (Ghr): −2.24
  Fold 1452590_a_at (Plac9): −1.64
  Fold 1459713_s_at (Tmem16a): −1.70
